From patent US9302018B2, “Fluorescent probe for imaging lymph nodes” (Eisai R&D Management Co., Ltd., priority 2010, dated 2016)
Values belong to the molecule of their own block, whether it stands above or below them.

Columns and labels:
[1] = Fluorescence lifetime (TemPro fluorescence lifetime photometer); type: physicochemical; conditions: excitation 740 nm, fluorescence 816 nm
Protocol: The fluorescence lifetimes of the fluorescence probes of the present invention were measured. The TemPro fluorescence lifetime photometer (manufactured by Horiba, Ltd.) was used for measurement. Table 3 indicates the values for a chloroform solution containing each near-infrared fluorescent dye at a concentration of 3.2×10^−2 mM and an aqueous solution of ICG (control), and Table 4 indicates values obtained from each of the near-infrared fluorescent dyes incorporated in the liposomes at a concentration of 3.2×10^−2 mM. A 740 nm semiconductor laser was used for the excitation light, and the lifetime spectra obtained at a fluorescence wavelength of 816 nm was analyzed for two components.

[2] = Maximum absorbance wavelength and molar extinction coefficient in ethanol; type: physicochemical; conditions: for Molar Extinction Coefficient (ε): in ethanol; for λmax (EtOH): maximum absorbance wavelength in ethanol
[3] = system: mouse popliteal lymph node; experiment: Fluorescent probe anchoring property in mouse popliteal lymph node; type: in vivo
Protocol: In order to investigate the lymph node anchoring property of the fluorescent probe, an ICG-8-containing fluorescent probe dispersion (liposome mean particle diameter: 240 nm, 0.2 mL, phospholipid concentration: 10 mM) or an ICG aqueous solution serving as a control (0.2 mL, 3.2 mM) was injected into the foreleg of mice (FIG. 6A) in the same manner as Example 5. Ten minutes later, the epidermal tissue was peeled off, and the site was irradiated with excitation light (LED light source, <780 nm) and the generated fluorescence (>810 nm) was detected with a monochromatic camera.
To investigate primary lymph node anchoring rate after the passage of a prescribed amount of time, an ICG-8-containing fluorescent probe or ICG aqueous solution was administered to mice in the same manner as described above. […] The p-values were calculated using Fisher's exact test.

[4] = Fluorescence detectability of fluorescent probe in vitro (brightness score, Image J); type: physicochemical; conditions: excitation <780 nm, fluorescence >810 nm
Protocol: Near-infrared fluorescence intensity was measured for the fluorescent dye-containing liposomes prepared in the manner described above with an aqueous solution of ICG serving as a control. 100 μL of liposome suspension containing a dye of a predetermined concentration or the ICG aqueous solution were added to a 96-well plate and irradiated with excitation light (LED light source, <780 nm) to detect the generated fluorescence (>810 nm). Brightness was evaluated using Image J image processing software.
In the table, values indicate the brightness score as determined with the Image J software (maximum value: 255), with the values shown in parentheses indicate the standard deviation.

[5] = chloroform solution, 3.2×10^−2 mM

Fluorescence lifetime, first component (%) [1, 5]: 67% | Fluorescence lifetime, first component (ns) [1, 5]: 1.27 ns | Fluorescence lifetime, second component (%) [1, 5]: 33% | Fluorescence lifetime, second component (ns) [1, 5]: 0.41 ns | Molar Extinction Coefficient (ε) [2]: 2.50 × 10^5 | λmax (EtOH) [2]: 788 nm
Compound: CCCCCCCCCCN1/C(=C/C=C/C=C/C=C/C2=[N+](CCCCS(=O)(=O)[O-])c3ccc4ccccc4c3C2(C)C)C(C)(C)c2c1ccc1ccccc21 [ICG-8-C10, 4(2-((1E,3E,5E,7E)-7-(1,1-dimethyl-3-decyl-1H-benzo[e]indol-2(3H)-ylidene)hepta-1,3,5-trienyl)-1,1-dimethyl-1H-benzo[e]indolium-3-yl)butane-1-sulfonic acid]

Compound: CC1(C)C(/C=C/C=C/C=C/C=C2\N(CCCCS(=O)(=O)[O-])c3ccc4ccccc4c3C2(C)C)=[N+](CCCCS(=O)(=O)[O-])c2ccc3ccccc3c21.[Na+] [ICG, Indocyanine green]
No. of mice in which fluorescence was observed in primary lymph node only/total no. of mice in experiment ([3]; 1 h elapsed from administration): 0/4 | No. of mice in which fluorescence was observed in primary lymph node only/total no. of mice in experiment ([3]; 3 h elapsed from administration): 2/5 | No. of mice in which fluorescence was observed in primary lymph node only/total no. of mice in experiment ([3]; 6 h elapsed from administration): 0/4 | No. of mice in which fluorescence was observed in primary lymph node only/total no. of mice in experiment ([3]; 24 h elapsed from administration): 0/3 | Lymph nodes from which fluorescence was detected ([3]; mice, 0.2 mL into foreleg, ten minutes later, probe liposome mean particle diameter 240 nm, ICG aqueous solution 3.2 mM): emitted at the first popliteal lymph node from the foreleg as well as from the second external iliac lymph node | Fluorescence lifetime, first component (ns) ([1]; aqueous solution (control)): 0.01~0.15 ns | brightness score (Image J, maximum value: 255), SD in parentheses ([4]; dye concentration 3.2 mM): 27(5) | brightness score (Image J, maximum value: 255), SD in parentheses ([4]; dye concentration 3.2 × 10−1 mM): 38(6) | brightness score (Image J, maximum value: 255), SD in parentheses ([4]; dye concentration 3.2 × 10−2 mM): 98(5) | brightness score (Image J, maximum value: 255), SD in parentheses ([4]; dye concentration 3.2 × 10−3 mM): 118(10) | brightness score (Image J, maximum value: 255), SD in parentheses ([4]; dye concentration 3.2 × 10−4 mM): 61(7) | Molar Extinction Coefficient (ε) [2]: 1.47 × 10^5 | λmax (EtOH) [2]: 787 nm

Molar Extinction Coefficient (ε) [2]: 2.63×10^5 | λmax (EtOH) [2]: 788 nm
Compound: CCCCCCCCN1/C(=C/C=C/C=C/C=C/C2=[N+](CCCCS(=O)(=O)[O-])c3ccc4ccccc4c3C2(C)C)C(C)(C)c2c1ccc1ccccc21 [ICG-8-C8, 4(2-((1E,3E,5E,7E)-7-(1,1-dimethyl-3-octyl-1H-benzo[e]indol-2(3H)-ylidene)hepta-1,3,5-trienyl)-1,1-dimethyl-1H-benzo[e]indolium-3-yl)butane-1-sulfonic acid]

Molar Extinction Coefficient (ε) [2]: 1.86×10^5 | λmax (EtOH) [2]: 786 nm
Compound: CC1(C)C(/C=C/C=C/C=C/C=C2/N(CCC(=O)O)c3ccc4ccccc4c3C2(C)C)=[N+](CCCCS(=O)(=O)[O-])c2ccc3ccccc3c21 [ICG-6, 4-(2-((1E,3E,5E,7E)-7-(3-(2-carboxyethyl)-1,1-dimethyl-1H-benzo[e]indol-2-(3H)-ylidene)hepta-1,3,5-trienyl)-1,1-dimethyl-1H-benzo[e]indolium-3-yl)butane-1-sulfonic acid]

Fluorescence lifetime, first component (%) [1, 5]: 69% | Fluorescence lifetime, first component (ns) [1, 5]: 1.25 ns | Fluorescence lifetime, second component (%) [1, 5]: 31% | Fluorescence lifetime, second component (ns) [1, 5]: 0.31 ns | Molar Extinction Coefficient (ε) [2]: 2.34×10^5 | λmax (EtOH) [2]: 787 nm
Compound: CCCCCCN1/C(=C/C=C/C=C/C=C/C2=[N+](CCCCS(=O)(=O)[O-])c3ccc4ccccc4c3C2(C)C)C(C)(C)c2c1ccc1ccccc21 [ICG-8-C6, 4(2-((1E,3E,5E,7E)-7-(1,1-dimethyl-3-hexyl-1H-benzo[e]indol-2(3H)-ylidene)hepta-1,3,5-trienyl)-1,1-dimethyl-1H-benzo[e]indolium-3-yl)butane-1-sulfonic acid]

Compound: CCCCCCN(CCCCCC)c1ccc(OC2=C(/C=C/C3=[N+](CCCCS(=O)(=O)[O-])c4ccc5ccccc5c4C3(C)C)CCC/C2=C\C=C2\N(CCCCS(=O)(=O)[O-])c3ccc4ccccc4c3C2(C)C)cc1.[Na+] [ICG-9, sodium [4-(2-((E)-2-((E)-2-(4-(dihexyamino)phenoxy)-3-((E)-2-(1,1-dimethyl-3-(4-sulfonatebutyl)-1H-benzo[e]indol-2(3H)-ylidene)ethylidene)cyclohexenyl)vinyl)-1,1-dimethyl-1H-benzo[e]indolium-3-yl)butane-1-sulfonate]]
Molar Extinction Coefficient (ε) [2]: 1.24×10^5 | λmax (EtOH) [2]: 810 nm

Molar Extinction Coefficient (ε) [2]: 2.52×10^5 | λmax (EtOH) [2]: 787 nm
Compound: CCCCN1/C(=C/C=C/C=C/C=C/C2=[N+](CCCCS(=O)(=O)[O-])c3ccc4ccccc4c3C2(C)C)C(C)(C)c2c1ccc1ccccc21 [ICG-8-C4, 4(2-((1E,3E,5E,7E)-7-(1,1-dimethyl-3-butyl-1H-benzo[e]indol-2(3H)-ylidene)hepta-1,3,5-trienyl)-1,1-dimethyl-1H-benzo[e]indolium-3-yl)butane-1-sulfonic acid]
